Consider 16 molecules from patent publication US20110230403A1, “GLYCOSIDE DERIVATIVES AND USES THEREOF” (NOVARTIS AG, priority 2008, published 2011).

Experiment [1] has as its target T1, human sodium glucose cotransporter 2 (Homo sapiens, UniProt P31639).
T1 construct: expressed in transfected cells; host or cells: CHO-K1 (ATCC CCL-61) or HEK293 (ATCC CRL-1573), stably transfected with pZeoSV expression vector
T1 sequence (P31639 1-672): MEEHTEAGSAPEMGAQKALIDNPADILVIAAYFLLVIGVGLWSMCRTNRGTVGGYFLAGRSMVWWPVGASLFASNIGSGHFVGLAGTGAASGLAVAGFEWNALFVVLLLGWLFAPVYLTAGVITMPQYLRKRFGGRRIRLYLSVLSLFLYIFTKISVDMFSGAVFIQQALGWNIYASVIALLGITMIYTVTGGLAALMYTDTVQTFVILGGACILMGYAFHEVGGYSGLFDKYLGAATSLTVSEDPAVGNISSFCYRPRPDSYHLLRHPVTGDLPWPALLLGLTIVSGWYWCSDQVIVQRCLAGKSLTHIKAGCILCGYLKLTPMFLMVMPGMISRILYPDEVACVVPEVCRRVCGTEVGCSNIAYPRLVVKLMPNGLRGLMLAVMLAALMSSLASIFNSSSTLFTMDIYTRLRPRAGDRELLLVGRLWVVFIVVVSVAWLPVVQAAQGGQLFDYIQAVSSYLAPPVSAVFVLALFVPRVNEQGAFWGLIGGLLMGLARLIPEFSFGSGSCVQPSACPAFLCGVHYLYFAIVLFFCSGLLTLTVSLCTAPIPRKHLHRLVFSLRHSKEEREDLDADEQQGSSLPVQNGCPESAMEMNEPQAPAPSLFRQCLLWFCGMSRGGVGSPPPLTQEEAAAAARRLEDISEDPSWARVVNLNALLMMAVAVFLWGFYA
The experiment is described as follows: SGLT-2 assay: 14C-AMG uptake in CHO-hSGLT2 or HEK293-hSGLT2 cells. The conditions noted are these: n = 1-4, hSGLT2-transfected cells, read-out: SGLT2 IC50 nM (n = 1-4). The format is cell-based. The procedure:
These cell lines transport 14 C-labelled alpha-methyl-glucopyranoside (14 C-AMG, Amersham) into the interior of the cell in sodium-dependent manner.
The SGLT-2 assay is carried out as follows: CHO-hSGLT2 cells are cultivated in Ham's F12 Medium (BioWhittaker) with 10% foetal calf serum and 250 μg/mL zeocin (Invitrogen), and HEK293-hSGLT2 cells are cultivated in DMEM medium with 10% foetal calf serum and 250 μg/mL zeocin (Invitrogen). The cells are detached from the culture flasks by washing twice with PBS and subsequently treating with trypsin/EDTA. After the addition of cell culture medium the cells are centrifuged, resuspended in culture medium and counted in a Casy cell counter. Then 40,000 cells per well are seeded into a white, 96-well plate coated with poly-D-Iysine and incubated overnight at 37° C., 5% CO2. The cells are washenwice with 250 μl of assay buffer (Hanks Balanced Salt Solution, 137 mM NaCl, 5.4 mM KCl, 2.8 mM CaCl2, 1.2 mM MgSO4 and 10 mM HEPES (pH 7.4), 50 μg/mL of gentamycin). 250 μl of assay buffer and 5 μl of test compound are then added to each well and the plate is incubated for a further 15 minutes in the incubator. 5 μl of 10% DMSO are used as the negative control. The reaction is started by adding 5 μl of 14 C-AMG (0.05 μCi) to each well. After 2 hours' incubation at 37° C., 5% CO2, the cells are washed again with 250 μl of PBS (200C) and then lysed by the addition of 25 μl of 0.1 N NaOH (5 min. at 37° C.). 200 μl of MicroScint20 (Packard) are added to each well and incubation is continued for a further 20 min at 37° C. After this incubation the radioactivity of the 14 C-AMG absorbed is measured in a Topcount (Packard) using a 14 C scintillation program.

Experiment [2] deals with T2, human SGLT1 (Homo sapiens, UniProt P13866).
T2 construct: expressed in transfected cells; host or cells: CHO-K1 or HEK293 cells
T2 sequence (P13866 1-664): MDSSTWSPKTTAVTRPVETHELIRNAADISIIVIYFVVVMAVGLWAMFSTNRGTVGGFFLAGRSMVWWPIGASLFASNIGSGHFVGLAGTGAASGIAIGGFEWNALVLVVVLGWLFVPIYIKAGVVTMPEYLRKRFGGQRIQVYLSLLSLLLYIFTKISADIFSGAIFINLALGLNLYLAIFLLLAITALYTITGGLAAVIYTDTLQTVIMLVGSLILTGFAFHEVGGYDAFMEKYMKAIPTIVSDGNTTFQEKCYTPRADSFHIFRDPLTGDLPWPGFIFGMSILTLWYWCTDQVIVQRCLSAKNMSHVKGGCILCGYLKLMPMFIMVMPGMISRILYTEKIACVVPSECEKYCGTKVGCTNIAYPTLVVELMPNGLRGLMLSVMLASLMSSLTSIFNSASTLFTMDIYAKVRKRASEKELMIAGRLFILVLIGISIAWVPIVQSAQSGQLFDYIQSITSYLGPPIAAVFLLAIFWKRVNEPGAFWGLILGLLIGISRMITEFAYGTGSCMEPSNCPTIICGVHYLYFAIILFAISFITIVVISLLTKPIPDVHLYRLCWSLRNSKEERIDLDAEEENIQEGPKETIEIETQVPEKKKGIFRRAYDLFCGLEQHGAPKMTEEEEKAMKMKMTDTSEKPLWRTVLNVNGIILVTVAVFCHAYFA
The experiment is described as follows: hSGLT1 assay: analogous [14C]-AMG uptake in CHO-K1 or HEK293 cells expressing hSGLT1. The format is cell-based. The note with it: n = 1-4, hSGLT1-transfected cells. The procedure:
To determine human SGLT1 inhibitory activity, an analogous test was set up in which the cDNA for hSGLTI (Genbank Ace. No. NM000343) instead of hSGLT2 cDNA is expressed in CHO-K1 or HEK293 cells. The uptake assay buffer in the case of the hSGLT1 assay contains 10 mM HEPES, 5 mM Tris, 140 mM NaCl, 2 mM KCl, 1 mM CaCl2, and 1 mM MgCl2, pH 7.4 containing 0.5 mM of α-methyl-D-glucopyranoside (AMG), 10 μM of [^14C]-α-methyl-D-glucopyranoside and different inhibitor concentrations.

By IC50 is commonly meant the point on the concentration scale where inhibition reaches its midpoint. In the case of `CCOc1ccc(Cc2cc([C@@H]3O[C@H](CSc4cccc(C(N)=O)c4)[C@@H](O)[C@H](O)[C@H]3O)ccc2Cl)cc1` [Example 78, 3-{(2S,3S,4R,5R,6S)-6-[4-Chloro-3-(4-ethoxy-benzyl)-phenyl]-3,4,5-trihydroxy-tetrahydro-pyran-2-ylmethylsulfanyl}-benzamide], the IC50 in experiment [1] was 42 nM; in experiment [2], under 100 nM.

For `CCOc1ccc(Cc2cc([C@@H]3O[C@H](CSc4ncccn4)[C@@H](O)[C@H](O)[C@H]3O)ccc2Cl)cc1` [Example 8, (2S,3R,4R,5S,6S)-2-[4-Chloro-3-(4-ethoxy-benzyl)-phenyl]-6-(pyrimidin-2-ylsulfanylmethyl)-tetrahydro-pyran-3,4,5-triol], in experiment [1], the IC50 is 85 nM.

`CCOc1ccc(Cc2cc([C@@H]3O[C@H](CSc4cccc(NC(=O)CC)c4)[C@@H](O)[C@H](O)[C@H]3O)ccc2Cl)cc1` [Example 67, N-(3-{(2S,3S,4R,5R,6S)-6-[4-Chloro-3-(4-ethoxy-benzyl)-phenyl]-3,4,5-trihydroxy-tetrahydro-pyran-2-ylmethylsulfanyl}-phenyl)-propionamide]: the IC50 in experiment [1] turned out to be 9 nM.

In the case of `CCOc1ccc(Cc2cc([C@@H]3O[C@H](CSc4cccc(NC(C)=O)c4)[C@@H](O)[C@H](O)[C@H]3O)ccc2Cl)cc1` [Example 80, N-(3-{(2S,3S,4R,5R,6S)-6-[4-Chloro-3-(4-ethoxy-benzyl)-phenyl]-3,4,5-trihydroxy-tetrahydro-pyran-2-ylmethylsulfanyl}-phenyl)-acetamide], the IC50 in experiment [1] is 13 nM; in experiment [2], under 100 nM.

For the molecule `CCOc1ccc(Cc2cc([C@@H]3O[C@H](CSc4nnnn4C)[C@@H](O)[C@H](O)[C@H]3O)ccc2Cl)cc1` [Example 10, (2S,3R,4R,5S,6S)-2-[4-Chloro-3-(4-ethoxy-benzyl)-phenyl]-6-(1-methyl-1H-tetrazol-5-ylsulfanylmethyl)-tetrahydro-pyran-3,4,5-triol], the IC50 is 20 nM in experiment [1] and under 1000 nM in experiment [2].

On to `CCOc1ccc(Cc2cc([C@@H]3O[C@H](CSc4cccc(CO)c4)[C@@H](O)[C@H](O)[C@H]3O)ccc2Cl)cc1` [Example 77, (2S,3R,4R,5S,6S)-2-[4-Chloro-3-(4-ethoxy-benzyl)-phenyl]-6-(3-hydroxymethyl-phenylsulfanylmethyl)-tetrahydro-pyran-3,4,5-triol], for which the half-inhibitory concentration (IC50) in experiment [1] was 61 nM.

In the case of `CCOc1ccc(Cc2cc([C@@H]3O[C@H](COc4cccc(C(=O)NC)c4)[C@@H](O)[C@H](O)[C@H]3O)ccc2Cl)cc1` [Example 83, 3-{(2R,3S,4R,5R,6S)-6-[4-Chloro-3-(4-ethoxy-benzyl)-phenyl]-3,4,5-trihydroxy-tetrahydro-pyran-2-ylmethoxy}-N-methyl-benzamide], the IC50 in experiment [1] was determined as 72 nM.

In the case of `CCOc1ccc(Cc2cc([C@@H]3O[C@H](CSc4ccccc4C(N)=O)[C@@H](O)[C@H](O)[C@H]3O)ccc2Cl)cc1` [Example 24, 2-{(2S,3S,4R,5R,6S)-6-[4-Chloro-3-(4-ethoxy-benzyl)-phenyl]-3,4,5-trihydroxy-tetrahydro-pyran-2-ylmethylsulfanyl}-benzamide], in experiment [1], the IC50 is 57 nM.

Take `CCOc1ccc(Cc2cc([C@@H]3O[C@H](CSc4cc(NC(C)=O)ccc4F)[C@@H](O)[C@H](O)[C@H]3O)ccc2Cl)cc1` [Example 25, N-(3-{(2S,3S,4R,5R,6S)-6-[4-Chloro-3-(4-ethoxy-benzyl)-phenyl]-3,4,5-trihydroxy-tetrahydro-pyran-2-ylmethylsulfanyl}-4-fluoro-phenyl)-acetamide]: the IC50 in experiment [1] was 7 nM; in experiment [2], under 50 nM.

Consider `CCOc1ccc(Cc2cc([C@@H]3O[C@H](CSc4cccc(NC(=O)OC)c4)[C@@H](O)[C@H](O)[C@H]3O)ccc2Cl)cc1` [Example 69], for which the IC50 in experiment [1] is 28 nM.

In the case of `CCOc1ccc(Cc2cc([C@@H]3O[C@H](CSc4cc(C(=O)N5CCCC5)ccc4F)[C@@H](O)[C@H](O)[C@H]3O)ccc2Cl)cc1` [Example 36, (3-{(2S,3S,4R,6R,6S)-6-[4-Chloro-3-(4-ethoxy-benzyl)-phenyl]-3,4,5-trihydroxy-tetrahydro-pyran-2-ylmethylsulfanyl}-4-fluoro-phenyl)-pyrrolidin-1-yl-methanone], the IC50 in experiment [1] stood at 6 nM.

Regarding `CCOc1ccc(Cc2cc([C@@H]3O[C@H](COc4cccc(C(=O)N5CCC5)c4)[C@@H](O)[C@H](O)[C@H]3O)ccc2Cl)cc1` [Example 85], the IC50 in experiment [1] was 9 nM.

As to `CCOc1ccc(Cc2cc([C@@H]3O[C@H](CSc4ccccc4CO)[C@@H](O)[C@H](O)[C@H]3O)ccc2Cl)cc1` [Example 23, (2S,3R,4R,5S,6S)-2-[4-Chloro-3-(4-ethoxy-benzyl)-phenyl]-6-(2-hydroxymethyl-phenylsulfanylmethyl)-tetrahydro-pyran-3,4,5-triol], in experiment [1], the IC50 came to 36 nM.

Consider `CCOc1ccc(Cc2cc([C@@H]3O[C@H](CSc4nc5ccccc5[nH]4)[C@@H](O)[C@H](O)[C@H]3O)ccc2Cl)cc1` [Example 15, (2S,3S,4R,5R,6S)-2-(1H-Benzoimidazol-2-ylsulfanylmethyl)-6-[4-chloro-3-(4-ethoxy-benzyl)-phenyl]-tetrahydro-pyran-3,4,5-triol], for which the IC50 in experiment [1] stood at 65 nM.

Regarding `CCOc1ccc(Cc2cc([C@@H]3O[C@H](CSc4ccc(NC(C)=O)cc4)[C@@H](O)[C@H](O)[C@H]3O)ccc2Cl)cc1` [Example 61, N-(4-{(2S,3S,4R,6R,6S)-6-[4-Chloro-3-(4-ethoxy-benzyl)-phenyl]-3,4,6-trihydroxy-tetrahydro-pyran-2-ylmethylsulfanyl}-phenyl)-acetamide], in experiment [1], the IC50 worked out at 28 nM.

For `CCOc1ccc(Cc2cc([C@@H]3O[C@H](COc4cccc(C(=O)N5CCCC5)c4)[C@@H](O)[C@H](O)[C@H]3O)ccc2Cl)cc1` [Example 84, (3-{(2R,3S,4R,5R,6S)-6-[4-Chloro-3-(4-ethoxy-benzyl)-phenyl]-3,4,5-trihydroxy-tetrahydro-pyran-2-ylmethoxy}-phenyl)-pyrrolidin-1-yl-methanone], the IC50 in experiment [1] was 11 nM.
